Usually IC50 stands for the concentration that inhibits the measured activity by half.

The results in this text go back to article PMC8484532, “Synthesis and Evaluation of New Halogenated GR24 Analogs as Germination Promotors for Orobanche cumana” (Frontiers in Plant Science, 2021).

Read-outs that look alike come from different tables or passages of the source.

This assay addresses T1, ShHTL7 (Striga hermonthica, UniProt A0A0M3PNA2).
T1 sequence (A0A0M3PNA2 1-271): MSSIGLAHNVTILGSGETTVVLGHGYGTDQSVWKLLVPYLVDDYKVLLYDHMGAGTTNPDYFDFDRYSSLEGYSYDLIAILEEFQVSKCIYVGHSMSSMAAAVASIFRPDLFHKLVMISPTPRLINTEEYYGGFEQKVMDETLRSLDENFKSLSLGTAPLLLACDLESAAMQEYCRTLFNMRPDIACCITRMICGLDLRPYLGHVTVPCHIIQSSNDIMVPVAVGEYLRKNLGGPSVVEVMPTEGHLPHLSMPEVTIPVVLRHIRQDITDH
In words: in vitro yoshimulactone green (YLG) fluorescence competition assay. Format: biochemical.

`CC1=CC(O/C=C2/C(=O)OC3c4cc(Br)ccc4CC23)OC1=O` (stereo not shown) [7BrGR24, 7-bromo-GR24]: where the note is “read-out: IC50”, the 50% inhibitory concentration (IC50) stood at 521 ± 87 nM.
In turn, `CC1=CC(O/C=C2/C(=O)OC3c4ccccc4CC23)OC1=O` (racemic) [rac-GR24] showed an IC50 of 319 ± 32 nM.
In the case of `CC1=C[C@H](O/C=C2/C(=O)O[C@@H]3c4ccccc4C[C@H]23)OC1=O` [(+)-GR24], the IC50 is 248 ± 32 nM.
As for `CC1=CC(O/C=C2/C(=O)OC3c4cc(F)ccc4CC23)OC1=O` (stereo not shown) [7FGR24, 7-fluoro-GR24], the half-maximal inhibitory concentration (IC50) (read-out: IC50) came to 189 ± 12 nM.
